Experimental data as given in patent publication US20120329770A1, “CEPHALOSPORIN DERIVATIVES USEFUL AS BETA-LACTAMASE INHIBITORS AND COMPOSITIONS AND METHODS OF USE THEREOF” (priority 2010, published 2012).

Assays:
[1] = test system: Stenotrophomonas maltophilia IS 5568; assay: Antimicrobial MIC / checkerboard assay for synergy with meropenem; assay type: cell-based; conditions: S. maltophilia IS 5568; meropenem + compound, checkerboard
Experimental: (§1) Assays were conducted as described by Weigand et al. (Weigand, I.; Hilpert, K.; Hancock, R. E. Nat. Protocols 2008, 3, 163-175).
(§2) To determine the lowest concentration of an antimicrobial agent that inhibits visible growth of a microorganism, 50 μL of compound solution and 50 μL of buffer solution were added to each well at the desired concentration(s) (i.e. 4×the final concentration) as well as a zero control. Stock solutions of 10 mg/mL, were prepared in DMSO, followed by two-fold serial dilutions in Müeller-Hinton media and 100 μL of bacteria (ca. 5×10^5 CFU/mL) was added to each well. Plate counts were performed on the control wells to determine bacterial innoculum level. The innoculum was prepared by taking an overnight culture in Müeller-Hinton media and diluting to McFarland's 0.5 standard, and diluting a further 1:100 prior to addition to the plate. Lanes with no bacteria added served as sterility controls and lanes with no compound served as growth controls. Organisms were allowed to grow overnight at 37° C. in a humid environment and the plates were monitored at 625 nm for growth. MIC was determined to be the last well with no growth.
(§3) In the checkerboard assay one compound is serially diluted along the ordinate, and the second compound is serially diluted along the abscissa. […] A 50 μL aliquot of the compound was added to each well at the desired concentration(s) (i.e. 4×the final concentration) as well as a zero control. Stock solutions of 10 mg/mL of compound were prepared in DMSO, followed by two-fold serial dilutions in Müeller-Hinton media. Finally, 100 μL of bacteria (ca. 5×10^5 CFU/mL) was added to each well. Plate counts were performed on the control wells. Innoculum was prepared by taking an overnight culture in Müeller-Hinton media and diluting to McFarland's 0.5 standard, and diluting a further 1:100 prior to addition to the plate. […] The final volume in each well was 200 μL. The plates were allowed to grow overnight at 37° C. in a humid environment and were monitored at 625 nm for growth. […] Sterility controls and growth controls were included on each plate. The fractional inhibitory concentration (FIC) was determined as follows:
(§4) Results were interpreted in the following way: Synergistic if FIC≦0.5; Additive if […]; Indifferent if […]; Antagonistic if FIC≧2.0.

[2] = test system: Pseudomonas aeruginosa IS 5563; assay: as above; assay type: cell-based; conditions: P. aeruginosa IS 5563; meropenem + compound, checkerboard
Experimental: as §1, §2, §3, §4

[3] = test system: β-lactamases; assay: β-Lactamase inhibition, result in words; assay type: biochemical
Source text: In preferred embodiments, the compounds incorporate a good leaving group at the C3′ carbon that can be readily expelled as an anion. In some embodiments, the leaving group is a C3′-benzoylthio group, which may be substituted or unsubstituted, according to the definitions provided above for substituted or unsubstituted.
This effect correlates with the expected better leaving group ability of the benzoylthio group in the hydrolysis product versus the benzoate group in the comparative compound.

[4] = target: T1, IMP-1 (Serratia marcescens, UniProt P52699); assay: Sensitivity of IMP-1 to proteolysis by trypsin after incubation with inhibitor; assay type: biochemical; conditions: incubation of IMP-1 with inhibitor
T1 construct: made in house; host or cells: Escherichia coli BL21(DE3) carrying pCIP4

[5] = test system: Pseudomonas aeruginosa IS 6225; assay: Antimicrobial MIC / checkerboard assay for synergy with meropenem; assay type: cell-based; conditions: P. aeruginosa IS 6225, meropenem + compound
Experimental: as §1, §2
(§5) In the checkerboard assay one compound is serially diluted along the ordinate, and the second compound is serially diluted along the abscissa. […] A 50 μL aliquot of the compound was added to each well at the desired concentration(s) (i.e. 4×the final concentration) as well as a zero control. Stock solutions of 10 mg/mL of compound were prepared in DMSO, followed by two-fold serial dilutions in Müeller-Hinton media. Finally, 100 μL of bacteria (ca. 5×10^5 CFU/mL) was added to each well. Plate counts were performed on the control wells. Innoculum was prepared by taking an overnight culture in Müeller-Hinton media and diluting to McFarland's 0.5 standard, and diluting a further 1:100 prior to addition to the plate. Lanes with no bacteria added served as sterility controls and lanes with no meropenem or compound served as growth controls. The final volume in each well was 200 μL. The plates were allowed to grow overnight at 37° C. in a humid environment and were monitored at 625 nm for growth. […] Sterility controls and growth controls were included on each plate. The fractional inhibitory concentration (FIC) was determined as follows:
as §4

[6] = test system: Pseudomonas aeruginosa C-10; assay: as above; assay type: cell-based; conditions: P. aeruginosa C-10; meropenem + compound, checkerboard
Experimental: as §1, §2, §5, §4

[7] = test system: Chryseobacterium meningosepticum IS 5824; assay: as above; assay type: cell-based; conditions: C. meningosepticum IS 5824; meropenem + compound, checkerboard
Experimental: as §1, §2, §5, §4

[8] = test system: Stenotrophomonas maltophilia IS 6069; assay: as above; assay type: cell-based; conditions: S. maltophilia IS 6069, meropenem + compound
Experimental: as §1, §2, §5, §4

[9] = test system: Stenotrophomonas maltophilia IS 6081; assay: as above; assay type: cell-based; conditions: S. maltophilia IS 6081, meropenem + compound
Experimental: as §1, §2, §5, §4

[10] = target: T2, VIM-2 metallo-β-lactamase (Pseudomonas aeruginosa, UniProt Q9K2N0); assay: Inhibition of β-lactamases, nitrocefin hydrolysis; assay type: biochemical; conditions: nitrocefin 100 μM, 10 min pre-incubation; read-out: IC50 VIM-2 (Class B)
T2 construct: made in house; host or cells: Escherichia coli BL21 (DE3) pLysS carrying pNOR2001
Experimental: VIM-2 metallo-β-lactamase was expressed in Escherichia coli BL21 (DE3) pLysS carrying pNOR2001 (a generous gift from P. Nordmann, Université Paris XI, France) and purified as reported by Poirel et al. (Antimicrob. Agents Chemother. 2000, 44, 891-897). The homogeneity and molecular weight of the mature VIM-2 (29.7 kDa) was determined by SDS-PAGE (Laemmli, U. K. Nature 1970, 227, 680-685). Enzyme concentration was determined from the absorbance at 280 nm (εEM=32,000 M^−1 cm^−1).
(§6) Assay conditions for IC50 determinations involved enzyme concentrations ranging between 2 and 6 nM. The concentration used for the nitrocefin substrate was 100 μM. Assays with OXA-10 and OXA-45 were conducted at pH 7.0 with 100 mM sodium phosphate buffer containing 25 mM sodium bicarbonate. Assays with KPC-2 and GC1 were performed at pH 7.0 in 50 mM HEPES buffer and assays with IMP-1 and VIM-2 were performed in the same buffer with the addition of 500 mM NaCl and 1 μM ZnSO4. BSA was used with all enzymes (except OXA-10 and KPC-2) at concentrations of 0.5-1.0 μg/mL.
(§7) Inhibitors were pre-incubated for 10 minutes at room temperature with enzyme assay solutions prior to the addition of the nitrocefin. […] Enzymatic activity was determined using the initial rate of increase in absorbance at 482 nm

[11] = target: T3, class D β-lactamase OXA-10 (Pseudomonas aeruginosa, UniProt P14489); assay: Inhibition of β-lactamases, nitrocefin hydrolysis; assay type: biochemical
T3 construct: indicating a post-translational deletion of a 20 amino acid signal peptide; made in house; host or cells: Escherichia coli BL21 (DE3), pET24a-blaOXA-10, purified from culture supernatant
Source text: OXA-10 β-lactamase was expressed and purified using a modified protocol of that reported by Golemi et al. (J. Am. Chem. Soc. 2000, 122, 6132-6133). The pET24a plasmid with the blaOXA-10 gene insert, a kind gift from Prof. S. Mobashery (Notre Dame University), was transformed into Escherichia coli BL21 (DE3) and induced with IPTG. Purification of the enzyme was achieved by the addition of ammonium sulfate to the induced culture supernatant. The protein precipitate collected (50-70% ammonium sulfate saturation) was dissolved and dialyzed against 10 mM Tris.SO4 buffer, pH 7.5, and further purified with a DE52 cellulose column (Whatman, UK) equilibrated with the same buffer. The material bound to the column was washed with 10 mM Tris.SO4 buffer, pH 7.5, followed by an elution with a K2SO4 gradient (0-100 mM). Protein fractions containing nitrocefin-hydrolyzing activity were concentrated and purity analyzed by SDS-PAGE. A molecular weight of 27,490 Da for OXA-10 was determined by ESI MS, indicating a post-translational deletion of a 20 amino acid signal peptide.
(§8) Assay conditions for IC50 determinations involved enzyme concentrations ranging between 2 and 6 nM. […]
as §7

[12] = target: T4, IMP-1 metallo-β-lactamase (Serratia marcescens, UniProt P52699); assay: Inhibition of β-lactamases, nitrocefin hydrolysis; assay type: biochemical
T4 construct: made in house; host or cells: Escherichia coli BL21(DE3) carrying pCIP4
Source text: IMP-1 metallo-β-lactamase was expressed in Esherichia coli BL21(DE3) carrying pCIP4 and purified as reported by Laraki et al. (Antimicrob. Agents Chemother. 1999, 43, 902-906). The homogeneity of the protein was confirmed by SDS-PAGE according to the method of Laemmli (Nature 1970, 227, 680-685). The molecular weight of purified IMP-1, Mr=25,112±0.5 Da, as determined by ESI-MS, was in agreement with that deduced from its amino acid sequence (Laraki et al. Antimicrob. Agents Chemother. 1999, 43, 890-901).
as §6
(§9) Inhibitors were pre-incubated for 10 minutes at room temperature with enzyme assay solutions prior to the addition of the nitrocefin. These compounds were dissolved in DMSO and prepared at various concentrations such that the final concentration of DMSO was 1% during the pre-incubation. The reaction was initiated by the addition of the pre-incubated enzyme-cyclobutanone solution (90 μL) to a solution of nitrocefin in buffer (10 μL). Enzymatic activity was determined using the initial rate of increase in absorbance at 482 nm

[13] = target: class B β-lactamase NDM-1 (Klebsiella pneumoniae, UniProt C7C422); assay: Inhibition of β-lactamases, nitrocefin hydrolysis; assay type: biochemical; conditions: 15 μM nitrocefin
[14] = target: T5, class C β-lactamase GC1 (Enterobacter cloacae, UniProt Q59401); assay: Inhibition of β-lactamases, nitrocefin hydrolysis; assay type: biochemical; conditions: nitrocefin 100 μM, 10 min pre-incubation
T5 construct: made in house; host or cells: Escherichia coli AS226-51 harbouring pCS100
Experimental: GC1 β-lactamase was purified from Escherichia coli AS226-51 harbouring pCS100, which was a generous gift from Prof. M. Nukaga (Josai International University, Japan). The cell culture was harvested and subjected to a stringent periplasmic lysis protocol according to Crichlow et al. (Biochemistry 1999, 38, 10256-10261.). Purification proceeded similarly to Nukaga et al. (J. Biol. Chem. 2004, 279, 9344-9352.) with cation exchange chromatography (CM Sephadex C-50) equilibrated with 10 mM sodium phosphate buffer (pH 6), followed by elution with a stepwise gradient of increasing NaCl concentration. Fractions containing β-lactamase activity were then applied to a phenylboronate column (MoBiTec, Germany), equilibrated with 20 mM triethanolamine.HCl, pH 7.0, 0.5 M NaCl. The column was washed with the same buffer and then eluted with sterile 0.5 M borate buffer, pH 7.0, 0.5 M NaCl. Active fractions eluted from the phenylboronate column were analyzed for purity via SDS-PAGE, pooled, and concentrated before buffer exchange to 100 mM sodium phosphate, pH 7.0.
as §8, §7

[15] = target: class D β-lactamase OXA-45 (Pseudomonas aeruginosa, UniProt Q7WZC7); assay: Inhibition of β-lactamases, nitrocefin hydrolysis; assay type: biochemical
Experimental: OXA-45 β-lactamase was purified in the laboratory of Prof. T. Walsh (University of Bristol, UK) according to the method published (Toleman, M. A.; Rolston, K.; Jones, R. N.; Walsh, T. R. Antimicrob. Agents Chemother. 2003, 47, 2859-2863) and provided to this laboratory as a kind gift.
as §6, §9

[16] = target: T6, class A β-lactamase KPC-2 (Klebsiella pneumoniae, UniProt Q9F663); assay: Inhibition of β-lactamases, nitrocefin hydrolysis; assay type: biochemical; conditions: nitrocefin 100 μM, 10 min pre-incubation
T6 construct: calculated for a mature protein with a 24 amino acid signal peptide removed; made in house; host or cells: Escherichia coli DH5α (pBR322-catI-blaKPC-2)
Experimental: The KPC-2 β-lactamase was purified from Escherichia coli DH5α strain containing the plasmid, pBR322-catI-blaKPC-2, which was kindly provided by Prof. F. van den Akker (Case Western Reserve University). Expression and purification of the enzyme was similar to that reported by Ke et al. (Biochemistry 2007, 46, 5732-5740). A molecular weight of 28,472 Da for the purified KPC-2 was determined by ESI MS. This is in close agreement with that calculated for a mature protein with a 24 amino acid signal peptide removed.
as §6, §7

T6 sequence (Q9F663 25-293, looked up): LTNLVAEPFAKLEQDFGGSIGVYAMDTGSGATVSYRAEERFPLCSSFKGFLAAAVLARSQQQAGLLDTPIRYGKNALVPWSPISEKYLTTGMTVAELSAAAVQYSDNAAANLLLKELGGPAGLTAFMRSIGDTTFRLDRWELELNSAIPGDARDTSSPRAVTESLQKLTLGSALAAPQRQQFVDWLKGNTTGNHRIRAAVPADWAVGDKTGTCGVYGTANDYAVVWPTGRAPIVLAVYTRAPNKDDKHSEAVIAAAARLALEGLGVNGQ
Chain of class B β-lactamase NDM-1 (C7C422 29-270, looked up): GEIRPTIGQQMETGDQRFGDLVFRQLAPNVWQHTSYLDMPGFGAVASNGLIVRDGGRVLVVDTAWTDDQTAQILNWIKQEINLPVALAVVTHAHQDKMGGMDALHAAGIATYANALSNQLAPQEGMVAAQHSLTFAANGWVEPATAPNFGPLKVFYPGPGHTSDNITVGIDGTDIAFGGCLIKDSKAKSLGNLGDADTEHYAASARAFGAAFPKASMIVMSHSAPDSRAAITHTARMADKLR
T5 sequence (Q59401 entry or part of it): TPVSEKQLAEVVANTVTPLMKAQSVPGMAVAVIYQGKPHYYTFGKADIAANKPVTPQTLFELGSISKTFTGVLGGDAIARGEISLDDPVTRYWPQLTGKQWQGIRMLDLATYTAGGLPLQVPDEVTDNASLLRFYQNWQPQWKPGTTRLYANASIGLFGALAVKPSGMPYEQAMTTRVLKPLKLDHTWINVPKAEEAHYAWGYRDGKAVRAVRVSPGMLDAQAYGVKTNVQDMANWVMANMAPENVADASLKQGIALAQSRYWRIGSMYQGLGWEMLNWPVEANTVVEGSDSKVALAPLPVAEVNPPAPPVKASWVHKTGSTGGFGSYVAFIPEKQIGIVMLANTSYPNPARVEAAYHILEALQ
T1 sequence (P52699 19-246 limits assumed): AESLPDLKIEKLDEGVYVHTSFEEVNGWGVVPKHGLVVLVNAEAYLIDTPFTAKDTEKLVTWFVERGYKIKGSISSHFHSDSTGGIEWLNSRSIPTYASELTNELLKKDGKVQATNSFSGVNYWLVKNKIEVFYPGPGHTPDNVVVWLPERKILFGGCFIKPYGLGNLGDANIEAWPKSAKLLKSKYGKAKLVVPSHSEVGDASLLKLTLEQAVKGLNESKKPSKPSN
T4 sequence (P52699 19-246, looked up): as the sequence (P52699 19-246 limits assumed) above
Chain of class D β-lactamase OXA-45 (Q7WZC7 entry or part of it): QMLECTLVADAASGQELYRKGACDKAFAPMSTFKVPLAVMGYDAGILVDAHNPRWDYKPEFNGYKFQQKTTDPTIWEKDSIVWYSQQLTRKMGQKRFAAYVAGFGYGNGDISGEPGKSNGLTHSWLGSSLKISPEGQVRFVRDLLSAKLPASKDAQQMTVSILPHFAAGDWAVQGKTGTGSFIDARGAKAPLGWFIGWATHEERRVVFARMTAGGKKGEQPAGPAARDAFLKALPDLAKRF
T3 sequence (P14489 20-266): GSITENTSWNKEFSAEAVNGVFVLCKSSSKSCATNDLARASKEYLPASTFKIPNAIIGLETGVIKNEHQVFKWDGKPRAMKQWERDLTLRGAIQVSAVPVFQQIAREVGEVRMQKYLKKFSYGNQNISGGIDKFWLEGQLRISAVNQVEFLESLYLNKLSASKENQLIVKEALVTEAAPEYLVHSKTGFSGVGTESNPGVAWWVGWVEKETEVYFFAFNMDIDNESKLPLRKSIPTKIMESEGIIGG

O=C(Cc1cccs1)N[C@@H]1C(=O)N2C(C(=O)O)=C(CSC(=O)c3ccccc3)CS[C@H]12 [CMPD A, (6R,7R)-3-(benzoylthiomethyl)-8-oxo-7-(2-(thiophen-2-yl)acetamido)-5-thia-1-azabicyclo[4.2.0]oct-2-ene-2-carboxylic acid]
FIC [1]: 0.1328 | FIC [2]: 0.1289 | β-lactamase inhibition [3]: good inhibitor | effect on sensitivity of IMP-1 to proteolysis by trypsin [4]: increases the sensitivity of the protein to proteolysis by trypsin | FIC [5]: 0.625 | FIC [6]: 0.5625 | FIC [7]: 0.2539 | FIC [8]: 0.25 | FIC [9]: 0.2539

O=C(Cc1cccs1)N[C@@H]1C(=O)N2C(C(=O)O)=C(CSC(=O)c3ccccc3)CS[C@H]12 [drawing 27]
IC50 [10]: 1.8 µM | IC50 [11]: 8.1 µM | IC50 [12]: 3.1 µM | IC50 [13]: 33 µM | IC50 [14]: 140 µM | IC50 [15]: 24 µM | IC50 [16]: 71 µM
